These results are taken from US20080280833A1, “Therapeutic Peptides Derived from Urokinase Plasminogen Activator Receptor” (priority 2005, published 2008).

The test system of assay [1] is LB6 clone 19 cells. Kind of assay: Chemotaxis assay, LB6 clone 19 cells (wild-type human uPAR). Type of assay: cell-based, mouse. The conditions noted are these: VN 5 μg/ml. The protocol:
(§1) Chemotaxis assay was performed as described (Degryse et al., 1999, 2001a, 2001b) with modified Boyden chambers. Filters (5 μm pore size, Neuro Probe, Gaithersburg, Md.) were treated with collagen I (100 μg/ml) and fibronectin (10 μg/ml, Roche).≈40-50,000 cells in serum-free DMEM were added to the upper well and the chemoattractants tested added to the lower well. When present, antibodies, or inhibitors were added in both wells. After overnight migration at 37° C., cells remaining on the upper surface of filters were scraped off and filters were fixed in methanol and stained in a solution of 10% (w/v) crystal violet in 20% (v/v) methanol. The experiments were performed at least twice in triplicate and the results, expressed as fold over control, are the mean ±SD of the number of cells counted in ten high power fields per filter. Random cell migration, i.e. migration in the absence of chemoattractant, was given the arbitrary value of 100%.

In assay [2] the test system is LB6-D1D2 cells. The assay can be described thus: 125I-VN cell binding, LB6-D1D2. On the set-up: species or system mouse. The settings on record: 125I-VN 0.5 nM, on ice 90 minutes. The protocol:
(§2) VN was iodinated using Iodogen (Pierce Chemical Co.) at a specific activity of 30-60×10^6 cpm/mg. Briefly, 10 μg of VN dissolved in 0.1 M tris pH 7.6, 0.1% (v/v) Tween 80, were incubated with 0.5 μCi ^125Iodine for 15 minutes at room temperature, in a volume of 100 μl. The reaction was stopped by adding 1 ml of stop/elution buffer, 0.1 M tris pH 8.1, 0.1% (v/v) Chaps and 50 μl of N-acetyl tyrosine (10 mg/ml in 0.1 M tris pH 7.4). Labeled VN was separated from unbound ^125Iodine by gel chromatography in PD-10 column (Pharmacia) in the stop/elution buffer.
(§3) Cells were seeded in 96-well culture dishes treated overnight with 1.5% gelatin in PBS pH 7.4, grown to confluence in DMEM plus 10% FCS, then serum-starved for 24 hours in DMEM. Total binding was determined by incubating the cells on ice for 90 minutes in binding buffer (DMEM containing 0.1% (w/v) BSA and 10 mM Hepes pH 7.4) plus 0.5 nM ^125I-VN. Nonspecific binding was measured by competition with a 100 fold excess of unlabeled VN. At the end of the incubation time, the cells were washed 3 times with ice-cold binding buffer and once with ice-cold PBS, then lysed in a solution of 1% SDS, 1% Triton X-100 and the associated radioactivity counted. Cell number was determined in 6 wells per lines cultured in parallel, and the results were standardized as cpm/10^5 cells.

The subject of a further assay is Stat1. Kind of assay: Immunofluorescence microscopy, Stat1 distribution. It counts as cell-based, rat. The settings on record: RSMC, 30 minutes at 37° C., peptide 1 pM or VN 1 μg/ml. Here is the method: (§4) As previously described (Degryse et al., 1999; 2004) 15,000-25,000 cells (20-40% confluence), were seeded on glass coverslips in 2 cm^2 well, cultured for 24 hours in DMEM plus 10% FCS, washed with PBS and cultured for another 24 hours without FCS. After stimulation, RSMC were fixed for 20 min at RT with 3% paraformaldehyde, 2% sucrose in PBS pH 7.5, washed 3 times with PBS-BSA 0.2%, permeabilized with 20 mM hepes pH 7.4, 300 mM saccharose, 50 mM NaCl, 3 mM MgCl2, 0.5% (v/v) Triton X-100 for 3 min at 4° C., and washed 3 times with PBS-BSA 0.2%. RSMC were incubated in PBS-BSA 2% for 15 min at 37° C., then with anti-Stat1 primary antibodies for 30 min at 37° C., washed 3 times with PBS-BSA 0.2%, and further incubated with PBS-BSA 2% for 15 min at 37° C. Cells were stained with the secondary TRITC-antibody and with FITC-phalloidin for visualization of filamentous actin, for 30 min at 37° C. DAPI (4′,6-diamidino-2-phenylindole, Roche) was used to label the nucleus. Finally, after 3 washes with PBS-BSA 0.2%, one with distilled water, coverslips were mounted with 20% (w/v) Mowiol. Fluorescence Photographs were taken with a Zeiss Axiophot microscope
To quantify the activation of Stat1, random pictures were taken and nuclei positively stained for Stat1 were counted and expressed in percent.

Assay [3] concerns LB6-D1D2 cells. Kind of assay: Chemotaxis assay, LB6-D1D2 cells (uPAR lacking domain 3). It counts as cell-based, mouse. Here is the method: as §1
The test system of another assay is NIH 3T3-D1HD3 cells. The assay can be described thus: Chemotaxis assay, NIH 3T3-D1HD3 cells. Type of assay: cell-based, mouse. Here is the method: as §1
In assay [4] the test system is human HT1080 fibrosarcoma cells. Kind of assay: Matrigel invasion assay. It counts as cell-based. The conditions noted are these: substance alone, 24 hours at 37° C.
Assay [5] relates to LB6-D1HD3 cells. The assay can be described thus: 125I-VN cell binding, LB6-D1HD3. Further details: species or system mouse. The settings on record: 125I-VN 0.5 nM, on ice 90 minutes. The protocol:
as §2, §3

The test system of assay [6] is LB6-D1HD3 cells. The assay can be described thus: Chemotaxis assay, LB6-D1HD3 cells (uPAR lacking domain 2). It counts as cell-based, mouse. The protocol:
as §1

Another assay concerns NIH 3T3 cells. Kind of assay: Chemotaxis assay, NIH 3T3 cells. Type of assay: cell-based, mouse. The conditions noted are these: NIH 3T3, VN 1 μg/ml. The protocol:
as §1

The next assay has as its system NIH 3T3-uPAR cells. The assay can be described thus: Chemotaxis assay, NIH 3T3-uPAR cells. It counts as cell-based, mouse. The conditions noted are these: VN 1 μg/ml. The protocol:
as §1

In another assay the test system is RSMC. Kind of assay: Immunofluorescence microscopy, actin cytoskeleton and cell morphology. It counts as cell-based, rat. The conditions noted are these: 30 minutes at 37° C., peptide 1 pM or VN 1 μg/ml. Here is the method:
as §4

For the next assay, the system named is HEK-293-uPAR cells. Kind of assay: Chemotaxis assay, HEK-293-uPAR cells. It counts as cell-based, human. The protocol:
as §1

For a further assay, the system named is HEK-293 cells. The assay can be described thus: Chemotaxis assay, HEK-293 cells. Type of assay: cell-based, human. The conditions noted are these: HEK-293, VN 1 μg/ml. The protocol: as §1
The subject of a further assay is LB6 cells. Kind of assay: Chemotaxis assay, modified Boyden chambers, LB6 cells. Type of assay: cell-based, mouse. The protocol:
as §1

Assay [7] relates to LB6 clone 19 cells. Kind of assay: 125I-VN cell binding, LB6 clone 19. Further details: species or system mouse. The settings on record: 125I-VN 0.5 nM, on ice 90 minutes. Here is the method: as §2, §3

For the substance “VN: vitronectin purified from human plasma”, the VN-dependent cell migration with LB6 clone 19 cells [1] (LB6 clone 19, wild-type uPAR) is 906 ± 22.8 % of control; in the assay on LB6-D1D2 cells [3] (LB6-D1D2, VN 5 μg/ml), 280 ± 6.0 % of control; in the assay with NIH 3T3-D1HD3 cells (NIH 3T3-D1HD3, VN 1 μg/ml), 100 ± 4.0 % of control; in the assay on LB6-D1HD3 cells [6] (LB6-D1HD3, VN 5 μg/ml), 102 ± 5.0 % of control; in the assay with NIH 3T3 cells it was 222.7 ± 4.8 % of control; in the assay with NIH 3T3-uPAR cells, 397 ± 11.1 % of control. Also, the VN-dependent cell migration was 394.3 % of control with HEK-293-uPAR cells (HEK-293-uPAR, VN 1 μg/ml); 199.1 % of control with HEK-293 cells; 274 ± 3.8 % of control in the assay on LB6 cells (LB6 cells, VN 5 μg/ml). Moreover, in the assay on LB6 clone 19 cells [1], the “enhancement of VN-directed cell migration of LB6 clone 19 compared to untransfected LB6 cells” value stood at 3.3 fold. The “VN binding to cells” value is listed as “poorly” in the assay with LB6-D1D2 cells [2], “poorly” with LB6-D1HD3 cells [5] and “bound” in the assay with LB6 clone 19 cells [7]. For the same substance, the “Stat1 activation and translocation into the nucleus” value in the assay with Stat1 was “reproduced this effect on Stat1 localization”. In the assay with LB6-D1D2 cells [3] (LB6-D1D2 cells, at 1 μg/ml), the “maximal stimulation of chemotaxis” value is on record as “about four-fold”. For the same substance, the stimulation of chemotaxis entry in the assay with NIH 3T3-D1HD3 cells (NIH3T3 cells transfected with D1HD3-uPAR, even at 10 μg/ml) was “failed to stimulate”; in the assay on LB6-D1HD3 cells [6] (LB6 cells transfected with D1HD3-uPAR, even at 10 μg/ml) it was “failed to stimulate”; in the assay with LB6 cells (untransfected parental LB6 cells), 2.5 fold. For the same substance, in assay [4], the “stimulation of Matrigel invasiveness of HT1080 cells” value was “stimulate”. Besides, in the assay on RSMC, the “cell morphology and actin cytoskeleton organization” value is reported as “induced similar changes”. In the assay on HEK-293-uPAR cells, the “chemotactic effect of VN in HEK-293-uPAR relative to untransfected HEK-293 cells” value was 2 fold. The cell migration in the assay on HEK-293-uPAR cells (HEK-293-uPAR, VN 1 μg/ml) was 417.25 ± 4.64 % of control; in the assay with HEK-293 cells, 210.84 ± 26.95 % of control.
